Experiments:
HepG2 cells = experiment: Intracellular H2S release with WSP-1 probe; format: cell-based, human; conditions: for intracellular H2S release, WSP-1 fluorescence signal vs vehicle: HepG2, tested concentrations 100-300 μM, 60 min
Experimental: All cell culture reagents were purchased from S.I.A.L. S.r.l. (Rome, Italy). WSP-1 (Washington State Probe-1, 3′-methoxy-3-oxo-3H-spiro[isobenzofuran-1,9′-xanthen]-6′-yl 2-(pyridine-2-yl-disulfanyl benzoate), was obtained from Cayman Chemical (Cayman, Ann Arbor, MI, USA). HepG2, human hepatocellular carcinoma cells, was obtained from American Type Culture Collection (ATCC, Bethesda, MD, USA). Human hepatocellular carcinoma cells (HepG2) were cultured in Minimum Essential Eagle’s Medium. This medium was supplemented with 10% (v/v) Fetal Bovine Serum, 1% (v/v) Glutamine and 1% (v/v) Penicillin-Streptomycin, 1% non-essential amino acids. Cells were cultivated at 37 °C with 5% CO2 at saturated humidity.
These experiments were carried out as already described. HepG2 cells were cultured up to about 90% confluence, and 24 h before the experiment cells were seeded into a 96-well flat bottom black plate (50,000 cells per well). After 24 h, the medium was replaced and cells were incubated at 37 °C for 30 min with a 10 mM solution of the fluorescent WSP-1 probe, which is highly sensitive for H2S detection. After incubation, the supernatant was removed and replaced with different concentrations (100, 200, and 300 µM) of the tested compounds dissolved in HBSS buffer. […] ADT 100 µM was used as a slow H2S-donor reference compound. Data were analyzed by one-way ANOVA for repeated measures, followed by post hoc Bonferroni’s multiple comparison test. Results are expressed as mean ± SEM of 3 independent experiments in triplicate. Statistical significance was accepted at a level of p < 0.05.
Next, we assessed the intracellular H2S release of thioureas and thioamides in HepG2 cells. The compounds were tested at different concentrations (100–300 μM) to evaluate if the release was dose-dependent. We also assayed ADT-OH and TIA as reference H2S-donors, and 3a as a negative control. The results were normalized to the fluorescence signal obtained with 100 μM ADT-OH.

[1] = system: mouse primary microglial cells; experiment: NO release assay (Griess) in primary microglial cells; format: cell-based; conditions: for LPS-induced NO production: 1 μM pretreatment 1 h, then LPS 0.1 μg/mL 24 h; for NO levels under basal conditions: 1 μM, no LPS
Experimental: Primary microglial cell cultures were derived from the cortices of 1–2-day-old mouse pups (1pup/1 brain/1 flask). After decapitation, the brains were extracted and immediately placed in cold Hanks’ Balanced Salt Solution (HBSS, Gibco, New York, NY, USA) on ice. The brains were washed at least three times with 7 mL of HBSS and then transferred to 10 mL of fresh culture media consisting of Dulbecco’s Modified Eagle Medium (DMEM) with GlutaMax and high glucose (4.5 g/L) (Gibco, New York, NY, USA) on ice. The tissue was minced and incubated in HBSS containing glucose, bovine serum albumin (BSA; Sigma-Aldrich, St. Louis, MO, USA), and HEPES (Gibco, New York, NY, USA) with 0.025% trypsin at 37 °C for 20 min. The trypsinization was halted by adding DMEM with GlutaMax and high glucose (4.5 g/L) supplemented with 10% heat-inactivated fetal bovine serum (FBS, Gibco, New York, NY, USA). The tissue was then gently triturated to obtain a single-cell suspension. Cells were plated at a density of 3 × 10^5 cells/cm^2 in culture medium composed of DMEM with GlutaMax and high glucose (4.5 g/L), supplemented with 10% heat-inactivated FBS, 100 U/mL penicillin, and 0.1 mg/mL streptomycin (all from Gibco, New York, NY, USA), in poly-L-lysine-coated 75 cm^2 culture flasks. On the ninth day in vitro (maintained at 37 °C, 5% CO2), the flasks were agitated on a horizontal shaker for 1 h at 37 °C and 80 rpm. Following centrifugation, the cells were resuspended in culture medium and seeded at final densities of 1.25 × 10^6 cells/well in 6-well plates, 2 × 10^5 cells/well in 24-well plates, or 4 × 10^4 cells/well in 96-well plates. The purity of microglial cell cultures was assessed as we have shown previously.
Microglia cell cultures were pretreated with the FPR2 agonists 8b (1 µM) or 7b (1 µM) for 1 h and then stimulated with lipopolysaccharide (LPS; 0.1 μg/mL; Escherichia coli 0111:B4; Sigma-Aldrich, St. Louis, MO, USA) for 24 h. The concentration of 1 μM was chosen based on our preliminary data (Supplementary File). Control cultures were treated with the appropriate vehicle. […]
NO (nitrite ion in solution) production from LPS-treated microglial cells was measured using the Griess reaction, as previously described by. After 24 h of treatment, equal volumes of cell culture medium and Griess reagents (Griess A: 0.1% N-1-naphthylethylenediamine dihydrochloride and Griess B: 1% sulfanilamide in 5% phosphoric acid) were combined in a 96-well plate and the absorbance was read at 540 nm using an Infinite M200PRO microplate reader (TECAN, Männedorf, Switzerland). The results were normalized to the NO levels released by vehicle-treated cells (set at 100%) and expressed as a percentage of the control ± SD.

[2] = system: mouse primary microglial cells; experiment: LDH release assay in primary microglial cells; format: cell-based; conditions: 1 μM pretreatment 1 h, then LPS 0.1 μg/mL 24 h
Experimental: (§1) Primary microglial cell cultures were derived from the cortices of 1–2-day-old mouse pups (1pup/1 brain/1 flask). After decapitation, the brains were extracted and immediately placed in cold Hanks’ Balanced Salt Solution (HBSS, Gibco, New York, NY, USA) on ice. The brains were washed at least three times with 7 mL of HBSS and then transferred to 10 mL of fresh culture media consisting of Dulbecco’s Modified Eagle Medium (DMEM) with GlutaMax and high glucose (4.5 g/L) (Gibco, New York, NY, USA) on ice. The tissue was minced and incubated in HBSS containing glucose, bovine serum albumin (BSA; Sigma-Aldrich, St. Louis, MO, USA), and HEPES (Gibco, New York, NY, USA) with 0.025% trypsin at 37 °C for 20 min. The trypsinization was halted by adding DMEM with GlutaMax and high glucose (4.5 g/L) supplemented with 10% heat-inactivated fetal bovine serum (FBS, Gibco, New York, NY, USA). […] The purity of microglial cell cultures was assessed as we have shown previously. […]
LDH release was measured as previously described by as an estimation of cell damage 24 h after LPS treatment. […] Absorbance was measured at 540 nm using an Infinite M200PRO microplate reader (TECAN, Männedorf, Switzerland). The results were normalized to the LDH activity released from vehicle-treated cells (considered as 100%) and expressed as a percentage of the control ± SD.

IL-18 = IL-18 ELISA in medium of microglial cultures; format: cell-based, mouse; conditions: 1 μM pretreatment 1 h, then LPS 0.1 μg/mL 24 h
Experimental: as §1, with “min.” for “min. The trypsinization was halted by adding DMEM with GlutaMax and high glucose (4.5 g/L) supplemented with 10% heat-inactivated fetal bovine serum (FBS, Gibco, New York, NY, USA).”
To assess the effect of test compounds on IL-18, IL-6, and IL-10 levels, the medium of microglial cell cultures was collected 24 h after LPS treatment. The protein levels of the cytokines IL-18 (Mouse interleukin 18 ELISA kit), IL-6 (Mouse interleukin 6 ELISA kit), and IL-10 (Mouse interleukin 10 ELISA kit; all obtained from FineTest, Wuhan, China) were measured using commercially available enzyme-linked immunosorbent assay kits according to the manufacturer’s instructions. […]

| Structure (SMILES) | intracellular level of H2S vs reference H2S donor ADT (HepG2 cells; HepG2, at 200 and 300 μM, p < 0.001 vs. ADT) | intracellular H2S release, WSP-1 fluorescence signal vs vehicle (HepG2 cells) | levels of H2S release in HepG2 cells (HepG2 cells; summary of WSP-1 results) | LPS-induced NO production [1] | NO levels under basal conditions [1] | LPS-induced cytotoxicity (LDH release) [2] | LPS-induced increase of IL-18 level (IL-18) |
| --- | --- | --- | --- | --- | --- | --- | --- |
| N#Cc1ccc(C[C@H](NC(=O)Nc2ccc(F)cc2)C(=S)N2CCc3ccccc32)cc1 [7b, (S)-1-[3-(4-Cyanophenyl)-1-(indolin-1-yl)-1-thioxopropan-2-yl]-3-(4-fluorophenyl)urea] | more than the reference H2S donor ADT | significant fluorescence signal increase at all tested concentrations | very high levels of H2S release | effectively attenuated | neither compound increased NO levels | effectively mitigated | able to counterbalance the LPS-induced increase |
| N#Cc1ccc(C[C@H](NC(=O)Nc2ccc(Br)cc2)C(=S)N2CCc3ccccc32)cc1 [8b, (S)-1-(4-Bromophenyl)-3-[3-(4-cyanophenyl)-1-(indolin-1-yl)-1-thioxopropan-2-yl]urea] | – | not statistically significant | – | effectively attenuated | neither compound increased NO levels | effectively mitigated | able to counterbalance the LPS-induced increase |
